From patent US20160295854A1, “COMPOSITION AND METHOD FOR EX-VIVO IMMUNOMODULATION AND/OR PRESERVATION OF ORGANS, METHODS AND USE” (UNIAO BRASILEIRA DE EDUCACAO E ASSISTENCIA , MANTENEDORA DA …, priority 2014, published 2016)

Assays:
MHC II = MHC II (I-A^b) expression in DCs isolated from skin draining lymph nodes; assay type: cell-based, mice (Mus musculus)
Procedure: CD11c+ cells were purified from lymph nodes that drain mice skin antigens C57Bl/6 WT or TLR2 KO, and 129Sv/Ev WT or IL-10 KO. The animals were sacrificed and the axial, brachial and inguinal lymph nodes were removed. These organs were macerated in a nylon screen with a mean that has D Collagenase (Roche). The cell suspension achieved was marked with the magnetic beads conjugated with an anti-CD11c antibody (N418) (Miltenyi Biotech) for 15 min. After being washed, the CD11c+ cells were purified by positive selecting using the MACS MS (Miltenyi Biotech) separation columns, according to the manufacturer instructions. The cells purity purified was controlled by flow cytometry, indicating a purity of 90% CD11c+ cells in the positive fraction. Therefore, the cells were grown in 96-well plates in serum free mean AIM-V® (Gibco).
The supernatants were collected and used for analyzing cytokine. The cells were further treated with 20 ng/ml of Rapamycin (Cell Signaling), 1 μg/ml of Cyclosporine A (Roche) or 20 ng/ml of IL-10 recombinant murine (R&D System) for 24 h and the total RNA was removed.
For analyzing the migration and activation of the DCs subtypes, the cells were marked for I-A^b (AF6-120.1), CD11c (HL3), CD11b (M1/70), CD45R/B220 (RA3-6B2), CD103 (M290), CCR7 (CD197-4B12), CD80 (16-10A1), CD86 (GL1) antibodies achieved from BD Biosciences; and Langerin (CD207—eBioRMUL.2) from eBioscience.
After this period, the expression of I-A^b in the DCs was analyzed by flow cytometry.
(A) Analysis strategy for DCs subtypes present in the mice recipients DNL. […] After this period, the expression of I-A^b was analyzed in the DCs CD103+. Graphs expressed on average ±SEM. **, p<0.01; ***, […]. n=3 mice per group. Representative results of 3 independent experiments.
After that, IL-10 mRNA levels were analyzed by Real-time PCR. The β-actin was used as a setter. The IL-10 concentration was measured in the cultures supernatant by flow cytometry. […] (C) As in A, however the MARCH-I mRNA levels were analyzed by Real-time PCR. […] DCs IL-10 KO were also treated with Recombinant IL-10. All treatments were performed for 24 h and MARCH-I mRNA levels were analyzed by Real-time PCR. […] After this period, grafts were sutured in the BALB/c animals' back and the acceptance was daily monitored. Graphs expressed on average ±SEM. *, p<0.05; **, p<0.01; ***, […]. n=3-5 mice per group. Representative results of 3 independent experiments.
The β-actin was used as setter. […] (C) Representative graphs and percentages of the CD11c+ I-Ab^hi, CD11c+I-Ab^int and CD11c+I-Ab^low cells of DCs isolated from LNs draining skin antigens of WT animals or TLR2 KO. […] After this period, the treated grafts were sutured in the BALB/c animals' back and the acceptance was daily monitored. […]

STAT3 = assay: p-STAT3 intracellular marking in BMDCs; assay type: cell-based, mice (Mus musculus); conditions: 30 μg/ml, 45 minutes after the stimulus
Procedure: As positive control, the cells were stimulated with […] of phorbol myristate acetate (PMA) for 30 minutes. After the stimuli in the periods mentioned, the cells were fixed with Cytofix Buffer (BD Biosciences) for 10 minutes at 37° C. and permeated with Phosflow Perm Buffer III (BD Biosciences) for 30 minutes on ice. After such procedures, the cells were marked for p-ERK1/2 and p-STAT3.
For analyzing the recipients T cells, the cells were marked for CD4 (GK1.5), CD8a (53-6.7), Foxp3 (MF23), Ki67 (B56) achieved from BD Biosciences. […] The levels of phosphorylated ERK and STAT3 were determined using antibodies for p-ERK1/2 and p-STAT3 (BD Biosciences) in BMDCs previously fixed and permeablized. The cells were subsequently analyzed in the flow cytometer FACSCanto II (BD Biosciences) with the BD FACSDiva (BD Biosciences) program. The data achieved were analyzed with the Flowjo program (version 7.6.5, Tree Star).
The p-ERK expression was measured by flow cytometry. […] The p-STAT3 expression was measured by flow cytometry. […] After that, the IL-10 mRNA levels were measured by Real-time PCR and the concentration of this cytokine by flow cytometry, using the kit CBA Mouse Inflammation. […] After that, the MARCH-I mRNA levels were analyzed by Real-time PCR. […]

recipient DCs = assay: Indirect alloantigen presentation by recipient DCs (Y-Ae antibody); assay type: in vivo, mice (Mus musculus); conditions: BALB/c grafts in B6 recipients; vs OVA
Procedure: Subsequently, the alloantigens presentation was analyzed by the recipient DCs using the antibody Y-Ae. This antibody recognizes a peptide (Eα52-68) expressed in BALB/c animals bound in the MHC II I-A^b molecule (expressed in the B6 animals).

Hsp70: recombinant Mycobacterium tuberculosis Hsp70 (DnaK) produced in Escherichia coli BL21, LPS removed
MHC II expression in DCs isolated from skin draining lymph nodes (FIG. 3) (MHC II; 24 h, vs OVA): increase in the number of DCs expressing intermediate or low levels of MHC II
MHC II expression inhibition in DCs TLR2 KO (FIG. 12 C) (MHC II; DCs isolated from LNs of WT or TLR2 KO): dependent on TLR2
reduction of MHC II expression in IL-10 KO DCs (FIG. 11 B) (MHC II; DCs of knockout animals for IL-10): not possible to note this phenomenon
MHC II expression in DCs CD103+ isolated from the lymph nodes (FIG. 9 C) (MHC II; in vitro, 30 μg/ml, 24 h): reduce in vitro the MHC II expression
STAT3 phosphorylation in BMDCs (FIG. 13 C) (STAT3): induced the phosphorylation STAT3
antigens presentation levels by recipient DCs, Y-Ae (FIG. 6 D) (recipient DCs): no difference
